Source: patent publication EP0019223A1, “Optically active hydantoin derivatives, their synthesis, pharmaceutical formulations containing them, and intermediates” (THE WELLCOME FOUNDATION LIMITED, priority 1979, dated 1980)

What was measured:
blood platelets = assay: Aggregation tests on rabbits (combination with phosphodiesterase inhibitor); type: in vivo; settings: dipyridamole combined with the (5S,3R) isomer
[1] = tested on: human platelet rich plasma; assay: Inhibition of ADP-stimulated platelet aggregation in fresh human platelet rich plasma (Born aggregometer); type: cell-based; settings: for Inhibition of platelet aggregation x PGE1: relative potency with respect to PGE1, 1 minute incubation at 37°C, ADP 2 to 5 µM; for activity (anti-platelet-aggregation) times that of PGE1: summary values given in the description
Experimental: Aggregation of platelets in […] of fresh human platelet. rich plasma (PRP) was monitored in a Born aggregometer.
The compound to be tested was added to the PRP at the desired concentration, and the resulting mixture incubated at 37°C for 1 minute after which platelet aggregation was stimulated by the addition of adenosine diphosphate (ADR) in a concentration just causing maximal aggregation (2 to 5 µM).
The anti-aggregatory effect of the compound was assessed by measuring the percentage inhibition of platelet aggregation in the presence of the compound as compared with when it was completely absent.

| IC50 ([1]; inhibition of platelet aggregation, human PRP) [µg/mL] | Structure (SMILES) | potentiation of the anti-aggregatory effect of the active compound (blood platelets) | potentiation of the anti-aggregatory effect of the active compound ([1]; dipyridamole combined with the (5S,3R) isomer, human platelet rich plasma) | Inhibition of platelet aggregation x PGE1 ([1]; first of two experiments) | Inhibition of platelet aggregation x PGE1 ([1]; second of two experiments) [x PGE1] | activity (anti-platelet-aggregation) times that of PGE1 [1] | anti-platelet-aggregation inhibitory effect relative to the activity of the corresponding racemate ([1]; compared with racemate of (5S,3R) and (5R,3S) isomers) |
| --- | --- | --- | --- | --- | --- | --- | --- |
|  | OCCN(CCO)c1nc(N2CCCCC2)c2nc(N(CCO)CCO)nc(N3CCCCC3)c2n1 [dipyridamole, 2,2',2",2'"-(4,8-dipiperidinopy-rimido [5,4-d]pyrimidine-2,6-diyldinitrilo)tetraethanol, reference compound] | potentation of the anti-aggregatory effect | potentation of the anti-aggregatory effect |  |  |  |  |
|  | O=C(O)CCCCCC[C@@H]1C(=O)NC(=O)N1CC[C@@H](O)C1CCCCC1 [[(5R),(3R)], (5R)-5-(6-carboxyhexyl)-1-[(3R) - 3-cyclohexyl 3-hydroxypropyl] hydantoin] |  |  | 0.05 x PGE1 | 0.04 | 0.05 times that of PGE1 |  |
|  | O=C(O)CCCCCC[C@H]1C(=O)NC(=O)N1CC[C@H](O)C1CCCCC1 [[(5S),(3S)], (5S)-5-(6-carboxyhexyl)-1-[(3S)-3-cyclohexyl-3-hydroxypropyl]hydantoin] |  |  | 0.07 x PGE1 | 0.05 | 0.06 times that of PGE1 |  |
|  | O=C(O)CCCCCC[C@H]1C(=O)NC(=O)N1CC[C@@H](O)C1CCCCC1 [[(5S),(3R)], (5S)-5-(6-carboxyhexyl)-1-[(3R)-3-cyclohexyl-3-hydroxypropyl] hydantoin] |  |  | 83 x PGE1 | 47 | ~40 times that of PGE1 | at least twice |
| > 2 | O=C(O)CCCCCC[C@@H]1C(=O)NC(=O)N1CC[C@H](O)C1CCCCC1 [[(5R),(3S)], (5R)-5-(6-carboxyhexyl)-1-[(3S)-3-cyclohexyl-3-hydroxypropyl]hydantoin] |  |  | inactive |  | inactive |  |
